According to paper PMC10178848, “Modulating fast skeletal muscle contraction protects skeletal muscle in animal models of Duchenne muscular dystrophy” (The Journal of Clinical Investigation, 2023):

Legend:
ZAP70 = molecular target: T1, ZAP70 (Homo sapiens, UniProt P43403); test: KINOMEscan scanEDGE; format: binding; conditions: 20 uM
T1 construct: purchased Eurofins DiscoverX (KINOMEscan; SAFETYscan E/IC50 ELECT)

[1] = molecular target: mouse gastrocnemius myofibrils; test: Myofibril ATPase, mouse gastrocnemius; format: biochemical; conditions: 21% IIa, 15% IIx, 56% IIb
ULK2 = molecular target: T2, ULK2 (Homo sapiens, UniProt Q8IYT8); test: KINOMEscan scanEDGE; format: binding; conditions: 20 uM
T2 construct: purchased Eurofins DiscoverX (KINOMEscan; SAFETYscan E/IC50 ELECT)

90 kinase proteins = test: KINOMEscan off-target binding panel (whole panel); conditions: 20 μM
[2] = molecular target: Rabbit Cardiac myofibrils; test: Myofibril ATPase, rabbit cardiac; format: biochemical; conditions: 25% MHCα, 75% MHC β, at pCa 50
[3] = molecular target: T3, smooth muscle myosin S1 isolated from chicken gizzard (Gallus gallus, UniProt P10587); test: Actin-activated myosin S1 ATPase, smooth muscle; format: biochemical
T3 construct: purchased Cytoskeleton Inc; host or cells: chicken gizzard
Protocol: Smooth muscle chicken gizzard S1 was purchased from Cytoskeleton Inc. Other myosin S1 was prepared via published protocols ([21]). Briefly, fresh rabbit psoas and frozen porcine ventricular muscle (Pel-freez) were extracted in 0.3 M KCl, 0.15 M KH2PO4, 1 mM EGTA, 1 mM ATP, 1 mM DTT, pH 6.5, at 4°C. Full-length myosin was purified from each extract via low-ionic precipitations with final precipitation into PM12 buffer (12 mM PIPES, pH 7.0, 2 mM MgCl2). Purified myosin was resuspended in PIPES/EDTA buffer (20 mM PIPES, pH 6.8, 10 mM EDTA, 1 mM DTT) and reacted with 0.2 mg/mL α-chymotrypsin for 30 minutes at room temperature. Proteolysis was quenched with PMSF (final concentration 100 μM), and the reaction was centrifuged for 45 minutes at 230,000g. S1 fragment in the supernatant was dialyzed into PM12 with 0.02% sodium azide and clarified by centrifugation. Sucrose was added to 10% w/v and flash-frozen in liquid N2 and stored at –80°C. […]
A lactate dehydrogenase/pyruvate kinase enzyme-coupled system ([62]) was used to monitor ATP hydrolysis rates in various muscle preparations. […] A multidrop cassette (Thermo Fisher Scientific) dispensed 10 μL of the coupled enzyme system, calcium, and myofibrils to 10 μL ATP, NADH and PEP to initiate the reaction prior to reading on a plate reader (Envision, Perkin Elmer) for 10 minutes per plate at room temperature. […]

[4] = system: fast rabbit psoas muscle fibers; test: Skinned fiber force, rabbit psoas; conditions: Oryctolagus cuniculus, maximal force at pCa 4.5, read-out: IC50, force in single skinned fibers
Protocol: (§1) Measurement of isometric force in skinned fibers from rabbit psoas, rat soleus, and rat cardiac trabeculae were performed as described previously ([65]) with an 802D fiber system (Aurora Scientific). Muscle bundles were thawed from –80°C and placed in relaxing solution. Single fibers were transferred to the testing apparatus with steel pins connected to a force transducer and motor (model 403A and 322C, Aurora Scientific), and collodion glue was applied. Temperature was set to 15°C for skeletal fibers and 30°C for rat cardiac trabeculae. The wells of the 802D were filled with different ratios of relaxing and activating pCa solutions as detailed previously ([65]). All control solutions contained 1% final DMSO. Traces were compared between control and compound runs to evaluate isometric force and calcium sensitivity.

[5] = molecular target: T4, ABL1(E255K)-phosphorylated (Homo sapiens, UniProt P00519, E255K); test: KINOMEscan scanEDGE; format: binding; conditions: 20 uM
T4 construct: purchased Eurofins DiscoverX (KINOMEscan; SAFETYscan E/IC50 ELECT)

KIT(D816V) = molecular target: T5, KIT(D816V) (Homo sapiens, UniProt P10721, D816V); test: KINOMEscan scanEDGE; format: binding; conditions: 20 uM
T5 construct: purchased Eurofins DiscoverX (KINOMEscan; SAFETYscan E/IC50 ELECT)

AURKB = molecular target: T6, AURKB (Homo sapiens, UniProt Q96GD4); test: KINOMEscan scanEDGE; format: binding; conditions: 20 uM
T6 construct: purchased Eurofins DiscoverX (KINOMEscan; SAFETYscan E/IC50 ELECT)

ERBB4 = molecular target: T7, ERBB4 (Homo sapiens, UniProt Q15303); test: KINOMEscan scanEDGE; format: binding; conditions: 20 uM
T7 construct: purchased Eurofins DiscoverX (KINOMEscan; SAFETYscan E/IC50 ELECT)

EGFR = molecular target: T8, EGFR (Homo sapiens, UniProt P00533); test: KINOMEscan scanEDGE; format: binding; conditions: 20 uM
T8 construct: purchased Eurofins DiscoverX (KINOMEscan; SAFETYscan E/IC50 ELECT)

PDGFRB = molecular target: T9, PDGFRB (Homo sapiens, UniProt P09619); test: KINOMEscan scanEDGE; format: binding; conditions: 20 uM
T9 construct: purchased Eurofins DiscoverX (KINOMEscan; SAFETYscan E/IC50 ELECT)

ALK = molecular target: T10, ALK (Homo sapiens, UniProt Q9UM73); test: KINOMEscan scanEDGE; format: binding; conditions: 20 uM
T10 construct: purchased Eurofins DiscoverX (KINOMEscan; SAFETYscan E/IC50 ELECT)

ACVR1B = molecular target: T11, ACVR1B (Homo sapiens, UniProt P36896); test: KINOMEscan scanEDGE; format: binding; conditions: 20 uM
T11 construct: purchased Eurofins DiscoverX (KINOMEscan; SAFETYscan E/IC50 ELECT)

ROCK2 = molecular target: T12, ROCK2 (Homo sapiens, UniProt O75116); test: KINOMEscan scanEDGE; format: binding; conditions: 20 uM
T12 construct: purchased Eurofins DiscoverX (KINOMEscan; SAFETYscan E/IC50 ELECT)

mouse TA muscle = test: In situ TA force and lengthening injury; format: in vivo; conditions: oral
Protocol: Measurement of isometric force and eccentric injury response in situ was performed in mouse TA muscle based on published protocols ([30]). Mice were anesthetized with 2% isoflurane (0.7%–1.5% maintenance) on a 37°C platform. The distal tendon to the TA and EDL muscle was attached with 4-0 suture a servomotor (Aurora Scientific). The sciatic nerve was exposed at the knee for hook electrodes. For compound assessment, baseline isometric contraction was assessed at 25–175 Hz (9 mA, 300 ms) followed by 100 Hz stimuli every 5 minutes. After 15 minutes, compound was dosed PO, and recording continued for 4 hours followed by a second force frequency. For in situ eccentric injury, compound was administered PO, muscle was stimulated every 5 minutes at 100 Hz for 3.5 hours, and then 2 lengthening contractions were performed (10 min apart, 100 ms at 150 Hz, then lengthening 0.2 L0 at 2 L0/s and hold for 100 ms). Isometric force before and 10 minutes after the injury contractions was recorded.

VEGFR2 = molecular target: T13, VEGFR2 (Homo sapiens, UniProt P35968); test: KINOMEscan scanEDGE; format: binding; conditions: 20 uM
T13 construct: purchased Eurofins DiscoverX (KINOMEscan; SAFETYscan E/IC50 ELECT)

IGF1R = molecular target: T14, IGF1R (Homo sapiens, UniProt P08069); test: KINOMEscan scanEDGE; format: binding; conditions: 20 uM
T14 construct: purchased Eurofins DiscoverX (KINOMEscan; SAFETYscan E/IC50 ELECT)

[6] = system: rat cardiac muscle fibers; test: Skinned fiber force, rat cardiac trabeculae; design: dose or concentration left out as unconfirmed; conditions: rat cardiac trabecular strips
Protocol: as §1

T2 sequence (Q8IYT8 whole entry): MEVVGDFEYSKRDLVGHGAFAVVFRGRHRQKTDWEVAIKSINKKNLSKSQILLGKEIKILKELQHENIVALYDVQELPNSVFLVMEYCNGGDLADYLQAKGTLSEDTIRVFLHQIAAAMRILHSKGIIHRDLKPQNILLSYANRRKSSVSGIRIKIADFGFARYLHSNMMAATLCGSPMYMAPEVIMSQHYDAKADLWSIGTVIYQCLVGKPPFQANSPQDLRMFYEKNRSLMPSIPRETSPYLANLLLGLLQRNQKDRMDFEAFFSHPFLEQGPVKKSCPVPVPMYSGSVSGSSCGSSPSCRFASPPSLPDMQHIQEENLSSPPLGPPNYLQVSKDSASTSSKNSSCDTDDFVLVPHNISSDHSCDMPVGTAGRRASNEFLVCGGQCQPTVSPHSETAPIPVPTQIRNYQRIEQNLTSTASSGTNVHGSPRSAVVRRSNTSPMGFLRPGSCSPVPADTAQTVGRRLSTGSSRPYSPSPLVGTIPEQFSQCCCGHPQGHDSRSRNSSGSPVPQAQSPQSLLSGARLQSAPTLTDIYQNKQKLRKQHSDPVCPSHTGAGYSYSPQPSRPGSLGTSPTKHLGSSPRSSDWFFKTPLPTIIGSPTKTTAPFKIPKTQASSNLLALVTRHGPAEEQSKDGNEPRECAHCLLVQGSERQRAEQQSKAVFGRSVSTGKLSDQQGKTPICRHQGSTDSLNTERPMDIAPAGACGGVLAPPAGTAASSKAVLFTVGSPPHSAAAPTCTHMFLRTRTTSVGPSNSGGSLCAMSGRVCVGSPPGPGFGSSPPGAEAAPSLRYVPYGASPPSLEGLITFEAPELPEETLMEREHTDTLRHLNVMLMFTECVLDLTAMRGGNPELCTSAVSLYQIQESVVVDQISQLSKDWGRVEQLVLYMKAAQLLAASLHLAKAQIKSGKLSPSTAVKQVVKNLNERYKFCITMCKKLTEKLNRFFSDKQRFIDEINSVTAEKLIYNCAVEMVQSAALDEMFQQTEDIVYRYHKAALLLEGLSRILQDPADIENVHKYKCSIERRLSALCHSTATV
T14 sequence (P08069 31-1367): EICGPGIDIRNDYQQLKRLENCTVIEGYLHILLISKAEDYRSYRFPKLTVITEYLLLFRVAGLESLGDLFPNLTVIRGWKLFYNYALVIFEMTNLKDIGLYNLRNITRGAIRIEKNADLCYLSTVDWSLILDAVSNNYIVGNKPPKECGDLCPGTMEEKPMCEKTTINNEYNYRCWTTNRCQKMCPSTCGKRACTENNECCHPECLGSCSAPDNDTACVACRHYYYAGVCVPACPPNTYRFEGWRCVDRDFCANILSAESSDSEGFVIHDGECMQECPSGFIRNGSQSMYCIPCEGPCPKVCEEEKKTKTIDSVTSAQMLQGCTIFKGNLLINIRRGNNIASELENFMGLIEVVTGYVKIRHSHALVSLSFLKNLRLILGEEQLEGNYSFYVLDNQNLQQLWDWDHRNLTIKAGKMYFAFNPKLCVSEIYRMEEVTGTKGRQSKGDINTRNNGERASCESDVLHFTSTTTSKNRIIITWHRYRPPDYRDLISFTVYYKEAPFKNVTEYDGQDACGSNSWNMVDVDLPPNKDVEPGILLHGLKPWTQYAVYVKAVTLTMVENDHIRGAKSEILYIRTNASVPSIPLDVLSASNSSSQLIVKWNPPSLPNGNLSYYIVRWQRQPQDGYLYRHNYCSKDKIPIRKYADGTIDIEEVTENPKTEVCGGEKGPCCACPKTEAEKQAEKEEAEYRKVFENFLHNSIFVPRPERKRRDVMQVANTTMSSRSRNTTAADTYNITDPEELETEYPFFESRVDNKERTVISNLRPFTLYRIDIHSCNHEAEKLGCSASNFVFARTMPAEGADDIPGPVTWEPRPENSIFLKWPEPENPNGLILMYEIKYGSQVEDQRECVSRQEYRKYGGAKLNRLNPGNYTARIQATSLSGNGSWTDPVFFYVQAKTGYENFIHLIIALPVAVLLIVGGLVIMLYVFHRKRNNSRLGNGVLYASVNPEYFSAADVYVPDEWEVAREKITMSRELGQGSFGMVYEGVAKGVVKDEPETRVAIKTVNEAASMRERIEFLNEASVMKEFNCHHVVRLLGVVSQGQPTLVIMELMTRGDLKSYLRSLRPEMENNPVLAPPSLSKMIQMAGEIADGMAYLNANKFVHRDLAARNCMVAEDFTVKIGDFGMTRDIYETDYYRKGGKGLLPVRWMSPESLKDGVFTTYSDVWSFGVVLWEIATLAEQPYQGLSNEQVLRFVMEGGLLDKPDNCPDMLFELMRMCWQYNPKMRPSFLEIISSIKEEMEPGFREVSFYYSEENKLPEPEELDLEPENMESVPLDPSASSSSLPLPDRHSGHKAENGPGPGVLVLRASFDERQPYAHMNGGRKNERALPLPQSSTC
T13 sequence (P35968 20-1356): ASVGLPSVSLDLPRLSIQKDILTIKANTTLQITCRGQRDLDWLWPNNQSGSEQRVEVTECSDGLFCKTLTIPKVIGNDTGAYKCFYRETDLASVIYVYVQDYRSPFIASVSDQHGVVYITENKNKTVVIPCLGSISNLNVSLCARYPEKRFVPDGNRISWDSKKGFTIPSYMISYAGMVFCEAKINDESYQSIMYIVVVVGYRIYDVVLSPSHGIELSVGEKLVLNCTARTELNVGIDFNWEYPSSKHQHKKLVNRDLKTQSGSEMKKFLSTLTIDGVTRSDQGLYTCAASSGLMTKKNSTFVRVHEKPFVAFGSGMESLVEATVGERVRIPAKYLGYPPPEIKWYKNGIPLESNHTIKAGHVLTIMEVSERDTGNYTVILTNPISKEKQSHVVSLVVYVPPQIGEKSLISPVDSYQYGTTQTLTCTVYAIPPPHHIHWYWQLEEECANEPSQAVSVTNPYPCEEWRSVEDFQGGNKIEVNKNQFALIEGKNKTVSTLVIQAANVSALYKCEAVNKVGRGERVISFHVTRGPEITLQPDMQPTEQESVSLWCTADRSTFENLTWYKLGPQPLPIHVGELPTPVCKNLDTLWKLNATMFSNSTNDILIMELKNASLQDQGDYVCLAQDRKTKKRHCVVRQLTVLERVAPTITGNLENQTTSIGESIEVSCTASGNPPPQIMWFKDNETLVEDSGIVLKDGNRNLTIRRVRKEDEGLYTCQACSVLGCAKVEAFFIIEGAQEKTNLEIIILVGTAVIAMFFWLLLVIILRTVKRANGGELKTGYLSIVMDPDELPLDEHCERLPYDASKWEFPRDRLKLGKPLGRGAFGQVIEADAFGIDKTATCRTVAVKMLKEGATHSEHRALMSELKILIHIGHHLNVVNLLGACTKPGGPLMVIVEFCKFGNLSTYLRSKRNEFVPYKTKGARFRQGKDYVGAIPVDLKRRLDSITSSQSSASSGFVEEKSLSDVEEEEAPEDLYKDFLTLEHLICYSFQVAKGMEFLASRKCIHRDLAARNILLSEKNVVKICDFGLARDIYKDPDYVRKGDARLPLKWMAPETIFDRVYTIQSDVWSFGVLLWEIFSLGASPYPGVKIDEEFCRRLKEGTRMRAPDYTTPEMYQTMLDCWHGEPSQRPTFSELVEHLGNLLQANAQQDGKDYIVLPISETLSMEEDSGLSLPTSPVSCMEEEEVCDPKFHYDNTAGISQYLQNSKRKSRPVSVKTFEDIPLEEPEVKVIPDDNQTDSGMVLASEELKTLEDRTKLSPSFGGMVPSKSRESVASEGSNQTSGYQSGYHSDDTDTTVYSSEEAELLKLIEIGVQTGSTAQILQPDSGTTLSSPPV
T8 sequence (P00533 25-1210): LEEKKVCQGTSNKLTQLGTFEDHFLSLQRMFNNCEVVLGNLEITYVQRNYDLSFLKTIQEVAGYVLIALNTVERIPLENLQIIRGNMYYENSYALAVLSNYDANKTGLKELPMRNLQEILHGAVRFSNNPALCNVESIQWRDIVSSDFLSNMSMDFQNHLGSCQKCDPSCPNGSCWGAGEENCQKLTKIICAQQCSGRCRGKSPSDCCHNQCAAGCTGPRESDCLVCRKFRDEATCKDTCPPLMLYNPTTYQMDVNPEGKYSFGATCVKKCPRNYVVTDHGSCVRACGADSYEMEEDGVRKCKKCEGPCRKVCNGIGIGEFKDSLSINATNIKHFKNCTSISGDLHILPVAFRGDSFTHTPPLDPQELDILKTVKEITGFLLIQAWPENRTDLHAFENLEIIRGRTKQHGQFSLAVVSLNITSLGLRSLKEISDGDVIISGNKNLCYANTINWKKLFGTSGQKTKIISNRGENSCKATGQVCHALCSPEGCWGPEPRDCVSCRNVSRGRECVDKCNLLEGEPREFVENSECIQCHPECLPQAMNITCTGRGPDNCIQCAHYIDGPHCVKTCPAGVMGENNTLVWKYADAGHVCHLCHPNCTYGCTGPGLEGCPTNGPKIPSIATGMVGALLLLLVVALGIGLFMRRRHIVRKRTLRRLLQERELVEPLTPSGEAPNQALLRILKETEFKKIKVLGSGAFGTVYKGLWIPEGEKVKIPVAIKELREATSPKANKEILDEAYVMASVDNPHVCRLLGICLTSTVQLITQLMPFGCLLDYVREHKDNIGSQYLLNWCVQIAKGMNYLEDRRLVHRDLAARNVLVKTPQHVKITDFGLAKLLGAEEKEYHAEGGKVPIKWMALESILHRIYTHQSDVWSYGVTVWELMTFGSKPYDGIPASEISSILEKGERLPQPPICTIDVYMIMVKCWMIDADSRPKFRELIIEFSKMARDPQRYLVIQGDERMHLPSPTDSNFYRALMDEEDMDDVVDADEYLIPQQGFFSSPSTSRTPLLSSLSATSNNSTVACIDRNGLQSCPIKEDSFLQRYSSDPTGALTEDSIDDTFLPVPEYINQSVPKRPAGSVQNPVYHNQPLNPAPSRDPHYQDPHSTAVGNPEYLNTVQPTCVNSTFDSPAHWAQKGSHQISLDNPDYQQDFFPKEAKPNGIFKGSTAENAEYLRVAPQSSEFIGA

## O=c1ccc(-c2cnc(OCC(F)(F)F)nc2)nn1Cc1cncc(F)c1 [EDG-5506]
ZAP70
  binding, % of control: 85 % of control
[1]
  IC50: 400 nM
ULK2
  binding, % of control: 82 % of control
90 kinase proteins
  binding affinity with kinase panel: did not exhibit any binding affinity
[2]
  IC50: > 100000 nM
[3]
  IC50: > 100000 nM
[4]
  IC50: 700 nM
[5]
  binding, % of control: 83 % of control
KIT(D816V)
  binding, % of control: 87 % of control
AURKB
  binding, % of control: 82 % of control
ERBB4
  binding, % of control: 93 % of control
EGFR
  binding, % of control: 100 % of control
PDGFRB
  binding, % of control: 100 % of control
ALK
  binding, % of control: 95 % of control
ACVR1B
  binding, % of control: 91 % of control
ROCK2
  binding, % of control: 89 % of control
Mouse TA muscle; mdx TA in situ
  decrease in isometric force at protective doses: < 10%
Mouse TA muscle; mdx TA muscle, 2 lengthening contractions
  strength drop after in situ lengthening injury: dramatically improved
VEGFR2
  binding, % of control: 77 % of control
IGF1R
  binding, % of control: 94 % of control
[6]
  effect on force, cardiac muscle fibers: no effect
